Values quoted from earlier work, collected in patent US20110184379A1, “METHOD AND SYSTEM TO DEFINE PATIENT SPECIFIC THERAPEUTIC REGIMENS BY MEANS OF PHARMACOKINETIC AND PHARMACODYNAMIC TOOLS” (MEDTRONIC, INC., priority 2008, published 2011).
Read-outs that look alike come from different tables or passages of the source.

What was measured:
[1] = system: HCV
[2] = system: HCV; remark: listed apart in the source
[3] = system: HCV; remark: listed apart in the source
[4] = preliminary review of blinded data, four completed cohorts
[5] = system: genotype 1 HCV polymerases
[6] = system: Hepatitis C virus replicon
[7] = system: HCV genotype 1; settings: 5 days of dosing
[8] = system: HCV genotype-1; settings: 14-day course
[9] = system: chronic hepatitis C virus (HCV) genotype 1; settings: for SVR at 24 weeks after the end of treatment (SVR 24): 28-week Boceprevir arm
[10] = system: HCV; settings: for viral load reduction: oral
[11] = system: HCV; remark: listed apart in the source

CC(C)C(=O)OC[C@H]1O[C@@H](n2ccc(N)nc2=O)[C@](C)(F)[C@@H]1OC(=O)C(C)C [R71278]
decrease in HCV RNA (viral load) ([1]; 1,500 mg twice-daily arm): > 99% | antiviral activity across all dosing arms ([1]; in vivo): dose-dependent antiviral activity | safety and tolerability ([1]; in vivo): generally safe and well-tolerated with no serious adverse events

interferon-α
therapeutic effectiveness of the combination ([2]; ribavirin combined with interferon-α, genotype 1 population): 29% | delay before HCV RNA decline ([3]; IFN or IFN plus ribavirin): 7 to 10 h | fall of HCV RNA in the first phase (1-2 days), on average ([3]; genotype 1 infected patients): 1-2 logs

CC(C)(C)OC(=O)N[C@H]1CCCCC/C=C\[C@@H]2C[C@@]2(C(=O)NS(=O)(=O)C2CC2)NC(=O)[C@@H]2C[C@@H](OC(=O)N3Cc4cccc(F)c4C3)CN2C1=O [ITMN-191]
safety and tolerability (preliminary safety data, doses intended for Phase 1b): well tolerated and safe | serious adverse events (single ascending dose, healthy subjects): no serious adverse events were reported | safety and tolerability [4]: safe and well-tolerated

COC[C@H]1C[C@@](Cn2cccn2)(C(=O)O)N(C(=O)c2ccc(C(C)(C)C)c(OC)c2)[C@H]1c1nccs1 [GSK625433]
inhibition of genotype 1 HCV polymerases [5]: highly potent and selective inhibitor | interaction with interferon in vitro [5]: synergistic

NC(=O)c1ncn([C@@H]2O[C@H](CO)[C@@H](O)[C@H]2O)n1 [ribavirin, 1-β-D-ribofuranosyl-1H-1,2,4-triazole-3-carboxamide]
efficacy ([2]; monotherapy): negligible efficacy

COc1ccc2c(O[C@@H]3C[C@H]4C(=O)N[C@]5(C(=O)NS(=O)(=O)C6CC6)C[C@H]5/C=C\CCCCN(C)C(=O)[C@@H]4C3)cc(-c3nc(C(C)C)cs3)nc2c1C [TMC435350]
appearance of drug-resistance ([6]; combination with interferon): suppress the appearance of drug-resistance | RNA reduction ([6]; combination with interferon, replicon model): > 4 logs | effect on Hepatitis C virus replication ([6]; replicon experiments, via protease inhibition): reduce the amount of Hepatitis C virus replication | tolerability [7]: well tolerated | antiviral activity ([7]; genotype 1 infected individuals): strong and rapid antiviral activity

CC(C)(C)NC(=O)N[C@H](C(=O)N1C[C@H]2[C@@H]([C@H]1C(=O)NC(CC1CCC1)C(=O)C(N)=O)C2(C)C)C(C)(C)C (some centres unmarked) [SCH503034]
maximum HCV RNA reduction ([8]; 400 mg group): more than 2 logs | safety and tolerability [8]: safe and well-tolerated with no serious adverse events | SVR at 24 weeks after the end of treatment (SVR 24) ([9]; lead-in): 56% | SVR at 24 weeks after the end of treatment (SVR 24) ([9]; no lead-in): 55% | SVR rate at 12 weeks after the end of treatment (SVR 12) ([9]; 48-week regimen, 4 weeks PEGINTRON + REBETOL lead-in before Boceprevir 800 mg TID, ITT): 74% | SVR 12 ([9]; 48 weeks Boceprevir + PEGIntron + REBETOL from the beginning, no P/R lead-in): 66% | SVR (ITT) in patients with rapid virologic response (RVR) ([9]; lead-in, 28-week regimen): 82% | SVR (ITT) in patients with rapid virologic response (RVR) ([9]; lead-in, 48 week regimen): 92%

[N-]=[N+]=N[C@]1(CO)O[C@@H](n2ccc(N)nc2=O)[C@H](O)[C@@H]1O [R1626, 4′-azidocytidine]
viral load reduction ([10]; 100 mg dose (so in the source)): 1.2 log 10 | viral load reduction ([10]; 300 mg dose (so in the source)): 2.6 log 10 | viral load reduction ([10]; 4500 mg dose): 3.7 log 10 | viral resistance ([10]; human, in vivo): No viral resistance was found | tolerability ([10]; increasing adverse events at the highest dose (4500 mg)): generally well-tolerated | End-of-Treatment Response ([11]; 4 weeks R1626 + Peginterferon Alfa-2a (40 kd) + Ribavirin, then 44 weeks Peginterferon Alfa-2a + Ribavirin): 84% | barrier to resistance ([11]; in vivo): high barrier to resistance
